From patent publication US20130231305A1, “Method of Modulating Protein 14-3-3 Functionality By Facilitating or Inhibiting Phosphorylation” (Medvet Science Pty. Ltd., priority 2010, published 2013)

Experiments:
14-3-3ζ [1] = molecular target: T1, 14-3-3ζ (Homo sapiens, UniProt P63104); test: 14-3-3 phosphorylation by PKA catalytic subunit (autoradiography); type: biochemical; details: TMA compounds at 125 μM or 62.5 μM in 0.1% ethanol; P81 scintillation counting or autoradiography
T1 construct: made in house
T1 sequence (P63104 1-245): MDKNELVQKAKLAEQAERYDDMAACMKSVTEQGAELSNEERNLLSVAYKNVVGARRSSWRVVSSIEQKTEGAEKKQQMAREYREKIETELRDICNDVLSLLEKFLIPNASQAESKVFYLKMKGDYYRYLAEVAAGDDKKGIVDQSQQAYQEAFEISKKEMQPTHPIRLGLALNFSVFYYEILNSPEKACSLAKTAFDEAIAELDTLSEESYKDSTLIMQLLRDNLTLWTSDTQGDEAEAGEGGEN

14-3-3ζ [2] = molecular target: T1, 14-3-3ζ; test: as above; type: biochemical; details: 50 μM lipid delivered in 0.1% ethanol
Experimental: 14-3-3ζ (wild-type or S58A mutant) was incubated with the catalytic subunit of PKA in the presence (+) or absence (−) of 50 μM sphingosine (A) or DMS (B) delivered in 0.1% ethanol. Phosphorylated 14-3-3ζ was detected by autoradiography.
The assay was carried out by incubating 14-3-g (0.5 μg) with catalytic subunit of PKA (0.2 Units) with the indicated concentration of DMS delivered in 0.1% ethanol. Reactions were separated on SDS-PAGE and phosphorylated protein detected by autoradiography. […] (B) 14-3-3ζ was incubated with the catalytic subunit of PKA and 50 μM D-erythro-sphingosine (Sph), D-erythro-trimethyl-sphingosine (TMS), D-erythro-dihydro-sphingosine (DHS), phyto-sphingosine (PSph), D-erythro-sphingosine-1-phosphate (SIP), C2-ceramide (C2-Cer), sphingomyelin (SM), spermine (Sper) or linoleic acid (LA), all delivered in 0.1% ethanol. Phosphorylated 14-3-3ζ was detected by autoradiography.
Substrate 14-3-3 (either 0.5 μg of purified recombinant 14-3-3, a […] of fractions from gel filtration or immunoprecipitates from 14-3-3ζ-Myc transfected COS cells) were added to reaction mixture comprising 0.2 Units of the PKA catalytic subunit, in the presences or absence of sphingolipid (delivered in 0.1% v/v ethanol) in PICA reaction buffer (20 mM MOPS, pH 7.4, 20 mM β-glycerol phosphate, 4 mM EGTA, 1 mM Na3VO4, 60 mM MgCl2, 1 mM DTT, 500 μM ATP, 2.4 μCi [^32P]γ-ATP). Reactions were incubated at 37° C. for 15 minutes. After incubation, reactions were separated on 12.5% SDS-PAGE, coomassie stained and 14-3-3 phosphorylation analysed by autoradiography.

Jurkat cells = test: Jurkat cell apoptosis (TMRE staining, NucView caspase activity); type: cell-based; details: TMAs, 16 hours incubation
From the text: (A) Immunoblotting of lysates from either parental Jurkat cells (Jurkat) or cells transduced with lentivirus encoding either wild type (Wt) or S58A 14-3-3ζ-Myc with either an anti-14-3-3ζ specific antibody (upper panel) or an anti-pan 14-3-3 antibody (middle panel) to compare the expression level of transduced protein. Myc immunoprecipitates were also immunoblotted with an anti-phospho 14-3-3 binding site antibody (lower panel) to detect proteins associated with 14-3-3ζ-Myc. Endogenous 14-3-3 is indicated by an open arrow and exogenous 14-3-3ζ-Myc with a closed arrow. (B) Lysates from either wild type (Wt) or S58A 14-3-3ζ-Myc expressing Jutkat cells were subjected to in vitro PKA phosphorylation in the presence (+) or absence (−) of […] and the samples immunoblotted after SDS-PAGE separation With either anti-Myc antibody (upper panel), anti-14-3-3ζ antibody (middle panel) or anti-phospho Ser58 14-3-3ζ antibody (lower panel). (C) Serum-starved Jurkat cells were treated with 2 μM FTY720 for 4 h prior to staining with TMRE and NucView™. Forward- versus side-scatter plots (FS versus SS) show the viable cell populations for FTY720 and EtOH (vehicle) treated cells which are analysed in the lower histograms for caspase activity (NucView™) versus ΔΨM (TMRE). (D and E) Jurkat cell lines expressing either wild type or S58A 14-3-3ζ-Myc by lentiviral transduction were serum-starved for 2 h and treated with either 0.1% ethanol vehicle alone (EtOH), 2 μM dimethyl-sphingosine (DMS), or 2 μM FTY720. Cells were analysed by TMRE staining at 4 h (D) or at the time points indicated (E). (D) Representative analyses of TMRE staining with forward- versus side-scatter plots inset to show the similarity in cell populations. (E) Graphical representation of TMRE analysis over time with open symbols representing vehicle (0.1% EtOH) treated cells and closed symbols representing FTY720 treated cells. […]
FIG. 11. […] Effect of TMAs on Jurkat cells after 16 hours incubation assessed by ΔΨM (TMRE) and caspase 3 activity (NucView™) analysis. […] Forward-side-scatter histograms showing cell viability are inset and caspase 3 activity as assessed by NucView™ analysis of viable cells shown. E. Examples of TMA-derivatives of FTY720 that will be analysed for effects on 14-3-3 dimer stability and apoptosis.
Having confirmed appropriate expression and behaviour of Myc-tagged wild type and S58A 14-3-3ζ in the Jurkat lines, these cells were utilised in functional studies to determine the effect of S58A 14-3-3ζ expression on cell survival in response to sphingosine analogues. […] Intriguingly, Jurkat cells expressing S58A 14-3-3ζ-Myc consistently underwent commitment to apoptosis (as detected by the loss of TMRE staining) more slowly than those expressing wild type 14-3-3ζ-Myc (FIG. 8D).

PKCδCat-HA = molecular target: T2, PKCδCat-HA (Homo sapiens, UniProt Q05655); test: PKC kinase activity assay with Ser25 peptide substrate; type: biochemical; details: 10 μM GF109203X
T2 construct: recreated exactly the N-terminus of the caspase-3 cleaved protein; additional initiator methionine (N); expressed in transfected cells; host or cells: COS cells, anti-HA immunoprecipitate
T2 sequence (Q05655 330-676 limits assumed): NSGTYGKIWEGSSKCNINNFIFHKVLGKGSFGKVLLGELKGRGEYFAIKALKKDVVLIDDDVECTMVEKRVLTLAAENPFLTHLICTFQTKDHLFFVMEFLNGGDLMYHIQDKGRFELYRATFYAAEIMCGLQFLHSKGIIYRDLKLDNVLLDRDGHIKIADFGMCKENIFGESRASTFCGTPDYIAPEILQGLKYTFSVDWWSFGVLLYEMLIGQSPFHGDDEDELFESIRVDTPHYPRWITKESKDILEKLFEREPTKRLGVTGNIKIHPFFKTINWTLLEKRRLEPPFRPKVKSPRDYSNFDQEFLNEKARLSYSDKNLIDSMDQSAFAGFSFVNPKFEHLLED
Experimental: FIG. 5 is an image depicting that DMS is required for phosphorylation of 14-3-3ζ by PKCδCat but not for activation of the kinase. COS cells were transfected with either an empty expression construct (Mock) or one encoding a HA-tagged truncated form of PKCδ corresponding to the caspase-3 cleaved protein (PKCδCat-HA). 20 hours after transfection the cells were lysed and PKCδCat-HA was immunoprecipitated using an anti-HA antibody. (A) PKC assays were carried out on the immunoprecipitates from mock (open bars) and PKCδCat-HA (shaded bars) expressing cells using Ser25 peptide as substrate with [^32P]γ-ATP in the presence or absence of 100 μM DMS (delivered in 0.1% ethanol) or 10 μM of GF109203X (GFX), the PKC inhibitor. The values represent means±S.E. of triplicate determinations. (B) PKCδCat-HA immunoprecipitates were incubated with recombinant 14-3-3ζ and [^32P]γ-ATP in the presence or absence of DMS or GF109203X (GFX). Phosphorylated 14-3-3 was detected by autoradiography after separation of SDS-PAGE (upper panel). The gel was also coomassie stained to show equal loading of 14-3-3 protein (lower panel). […]
Equal amounts of PKCδCat-HA immunoprecipitate were used to assay for PKC kinase activity, or to phosphorylate recombinant 14-3-3. […] Following incubation, reactions were separated on 12.5% SDS-PAGE, coomassie stained and 14-3-3 phosphorylation analysed by autoradiography.

Row | SMILES | phosphorylation of 14-3-3ζ on Ser58 by PKA catalytic subunit (14-3-3ζ [2]) | further results
1 | CCCCCCCCCCCCCCCC[N+](C)(C)C.[Br-] [C16, hexadecyl-trimethyl ammonium] |  | 14-3-3 phosphorylation by PKA catalytic subunit (14-3-3ζ [1]): capable of facilitating 14-3-3 phosphorylation
2 | CCCCCCCCCCCCCC[N+](C)(C)C [C14] |  | 14-3-3 phosphorylation by PKA catalytic subunit (14-3-3ζ [1]): capable of facilitating 14-3-3 phosphorylation
3 | CCCCCCCCCCCCC/C=C/[C@@H](O)[C@@H](N)COP(=O)(O)O [sphingosine-1-phosphate, D-erythro-sphingosine-1-phosphate] | did not support the phosphorylation | 
4 | CCCCCCCCCCCCCCC[C@@H](O)[C@@H](N)CO [dihydro-sphingosine, D-erythro-dihydro-sphingosine] | allowed phosphorylation | 
5 | CCCCCCCCCCCCCCCC[N+](C)(C)C.[Br-] [CTAB] |  | apoptosis of Jurkat cells (ΔΨM by TMRE, caspase 3 by NucView) (Jurkat cells): apoptosis induced by CTAB
6 | CCCCCCCCCCCCC/C=C/[C@@H](O)[C@H](COP(=O)([O-])OCC[N+](C)(C)C)NC(=O)CCCCCCCCCCCCCCCCC [sphingomyelin] | did not support the phosphorylation | 
7 | CCCCC/C=C\C/C=C\CCCCCCCC(=O)O [linoleic acid] | did not support the phosphorylation | 
8 | NCCCNCCCCNCCCN [spermide, spermine] | did not support the phosphorylation | 
9 | CCCCCCCCCCCCC/C=C/[C@@H](O)[C@H](CO)[N+](C)(C)C [trimethyl-sphingosine, D-erythro-trimethyl-sphingosine] | allowed phosphorylation | 
10 | CCCCCCCCCCCCCC[C@@H](O)[C@@H](O)[C@@H](N)CO [phyto-sphingosine] | allowed phosphorylation | 
11 | CN(C)CCCn1cc(C2=C(c3c[nH]c4ccccc34)C(=O)NC2=O)c2ccccc21 [GF109203X] |  | effect on PKCδCat kinase activity (PKCδCat-HA): completely inhibited
12 | CCCCCCCCCCCCC/C=C/[C@@H](O)[C@H](CO)NC(C)=O [ceramide, C2-ceramide] | did not support the phosphorylation | 
